In PubChem BioAssay (NCI) one finds GI50 and TGI data, which are given here for ten compounds.

Some test systems named below: UO-31 renal; A549 NSCLC; HL-60(TB) leukemia; SNB-75 CNS; EKVX NSCLC; SK-MEL-2 melanoma; HOP-62 NSCLC; LOX IMVI melanoma; SK-MEL-5 melanoma.
Holding throughout (test): inhibition of tumour cell growth, NCI panel, 48 h

Each structure is given as a SMILES string.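 Dose response: 5 concentrations. Exposure: 48 h. Format: 96-well plates. Endpoint: linear interpolation; highest concentration if not reached. Abbreviation: GI50, concentration required for 50% inhibition of growth. TGI marks complete inhibition of growth.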

Take `c1cnc2[nH]cc(-c3csc(-c4cn(CCCCN5CCOCC5)c5ccccc45)n3)c2c1`: the GI50 was 1.15 µM in the test with UO-31 renal; 1.89 µM in the test with A549 NSCLC; 1.96 µM in the test on HL-60(TB) leukemia; 1.19 µM in the test on SNB-75 CNS; 2.07 µM with EKVX NSCLC; 1.94 µM in the test with SK-MEL-2 melanoma. In addition, the results for the GI50 with HOP-62 NSCLC, in the test with LOX IMVI melanoma and in the test on SK-MEL-5 melanoma were 1.7 µM, 1.74 µM and 1.73 µM, respectively. The TGI in the test on UO-31 renal was 2.53 µM; with A549 NSCLC, 4.13 µM; with HL-60(TB) leukemia, 3.92 µM; in the test on SNB-75 CNS, 2.54 µM; in the test with EKVX NSCLC, 4.74 µM; with SK-MEL-2 melanoma it was 3.87 µM. Besides, the results for the TGI in the test with HOP-62 NSCLC, in the test with LOX IMVI melanoma and in the test with SK-MEL-5 melanoma were 3.7 µM, 3.26 µM and 3.16 µM, respectively.

Regarding `N#CC(C(=O)C(=O)NCCCNC(=O)C(=O)C(C#N)c1ccccc1)c1ccccc1` (centres undefined), the TGI in the test with UO-31 renal, with A549 NSCLC, with HL-60(TB) leukemia, in the test with SNB-75 CNS, in the test on EKVX NSCLC and in the test on SK-MEL-2 melanoma was over 100 µM in each case. Further, the TGI with HOP-62 NSCLC, in the test on LOX IMVI melanoma and in the test on SK-MEL-5 melanoma was over 100 µM each time.

In the case of `CN(C)c1ccc2cc(-c3ccccc3F)c(N)nc2c1`, the GI50 in the test with UO-31 renal is 3.16 µM; in the test with A549 NSCLC it was 2.46 µM; with HL-60(TB) leukemia, 0.419 µM; in the test with SNB-75 CNS, 1.86 µM; in the test with EKVX NSCLC, 6.57 µM; with SK-MEL-2 melanoma, 2.05 µM. The GI50 was 1.68 µM with HOP-62 NSCLC, 2.69 µM in the test on LOX IMVI melanoma and 1.54 µM with SK-MEL-5 melanoma. For the same compound, the TGI stood at 16.5 µM in the test with UO-31 renal; 16.4 µM in the test on A549 NSCLC; 9.36 µM in the test with HL-60(TB) leukemia; 9.69 µM in the test with SNB-75 CNS; 26.7 µM in the test with EKVX NSCLC; 15 µM in the test on SK-MEL-2 melanoma. Also, the values for the TGI in the test on HOP-62 NSCLC, with LOX IMVI melanoma and in the test with SK-MEL-5 melanoma were 12.7 µM, 15.1 µM and 6.31 µM, respectively.

For the compound `Clc1nc(Cl)c2c(ncn2C/C=C\Cn2cnc3c(Cl)nc(Cl)nc32)n1`, the GI50 with UO-31 renal was 2.08 µM; in the test on A549 NSCLC, 2.38 µM; with HL-60(TB) leukemia, 1.85 µM; with SNB-75 CNS it was 2.19 µM; in the test on EKVX NSCLC, 1.85 µM; with SK-MEL-2 melanoma, 1.41 µM. The GI50 with HOP-62 NSCLC is 2.35 µM; in the test on LOX IMVI melanoma it was 1.36 µM; in the test with SK-MEL-5 melanoma, 1.31 µM. Besides, the TGI with UO-31 renal was 4.35 µM; in the test with A549 NSCLC it was 5.99 µM; in the test with HL-60(TB) leukemia, over 100 µM; in the test with SNB-75 CNS it was 6.68 µM; in the test on EKVX NSCLC, 3.5 µM; in the test on SK-MEL-2 melanoma it was 2.73 µM. Besides, the TGI with HOP-62 NSCLC was 5.21 µM; in the test with LOX IMVI melanoma it was 2.85 µM; in the test with SK-MEL-5 melanoma it was 2.79 µM.

Regarding `COc1cc([C@@H]2c3cc4c(cc3[C@@H](NC(=O)c3ccccc3)C3COC(=O)[C@@H]32)OCO4)cc(OC)c1O` (some centres undefined), the TGI in the test with UO-31 renal was found to be 23.5 µM; in the test on A549 NSCLC, 16.6 µM; with HL-60(TB) leukemia, 9.44 µM; in the test with SNB-75 CNS it was 38 µM; in the test with EKVX NSCLC it was 87.1 µM; in the test with SK-MEL-2 melanoma, 57.3 µM. Further, the TGI in the test with HOP-62 NSCLC was 13 µM; in the test on LOX IMVI melanoma it was 25.1 µM; in the test on SK-MEL-5 melanoma, 14.1 µM.

For `CC1S(=O)(=O)OCCOS1(=O)=O`, the TGI was over 100 µM in the test with UO-31 renal; over 100 µM in the test with A549 NSCLC; 87.1 µM in the test on HL-60(TB) leukemia; over 100 µM with SNB-75 CNS; over 100 µM in the test with EKVX NSCLC; over 100 µM in the test with SK-MEL-2 melanoma. The TGI in the test with HOP-62 NSCLC, with LOX IMVI melanoma and with SK-MEL-5 melanoma was over 100 µM each time.

With `C=C1CC[C@@H]2[C@](C)(COC(C)=O)[C@H](OC(C)=O)CC[C@@]2(C)[C@@H]1CC(Nc1ccc(S(=O)(=O)Nc2nccc(C)n2)cc1)C1=CCOC1=O` (some centres undefined), the GI50 in the test on UO-31 renal was 2.91 µM; in the test with A549 NSCLC it was 8.19 µM; with HL-60(TB) leukemia, 2.1 µM; with SNB-75 CNS it was 2.69 µM; with EKVX NSCLC, 13.9 µM; in the test on SK-MEL-2 melanoma it was 6.01 µM. Moreover, the GI50 with HOP-62 NSCLC is 10.3 µM; in the test on LOX IMVI melanoma it was 1.53 µM; in the test with SK-MEL-5 melanoma it was 3.79 µM. The TGI was 10.6 µM in the test with UO-31 renal; 21.9 µM in the test with A549 NSCLC; 5.63 µM in the test on HL-60(TB) leukemia; 14.9 µM in the test with SNB-75 CNS; 27.1 µM in the test on EKVX NSCLC; 20 µM in the test with SK-MEL-2 melanoma. The TGI was found to be 22.5 µM with HOP-62 NSCLC, 3.24 µM in the test with LOX IMVI melanoma and 14 µM with SK-MEL-5 melanoma.

Regarding `COC(=O)C1C2C=CC(C2)N1[C@@H](C)c1ccccc1` (some centres undefined), the TGI with UO-31 renal, in the test with A549 NSCLC, in the test on HL-60(TB) leukemia, with SNB-75 CNS, with EKVX NSCLC and in the test with SK-MEL-2 melanoma was over 100 µM in each case. The TGI with HOP-62 NSCLC, in the test on LOX IMVI melanoma and in the test with SK-MEL-5 melanoma was over 100 µM throughout.

In the case of `C=C1C(=O)O[C@H]2[C@H]1CC/C(COC(=O)N1CCC[C@H]1C(=O)Nc1ccc(OC)c(C(N)=O)c1O)=C\CC[C@@]1(C)O[C@@H]21`, the GI50 with UO-31 renal is 2.11 µM; in the test with A549 NSCLC, 14.7 µM; in the test on HL-60(TB) leukemia, 1.59 µM; with SNB-75 CNS, 2.67 µM; in the test on EKVX NSCLC, 4 µM; in the test with SK-MEL-2 melanoma it was 6.58 µM. Besides, the GI50 was 12.8 µM in the test on HOP-62 NSCLC, 1.39 µM in the test on LOX IMVI melanoma and 3.48 µM with SK-MEL-5 melanoma. The TGI in the test with UO-31 renal turned out to be 8.97 µM; in the test with A549 NSCLC, 35.1 µM; in the test with HL-60(TB) leukemia, 4.83 µM; in the test on SNB-75 CNS, 14.9 µM; in the test with EKVX NSCLC it was 32.9 µM; in the test with SK-MEL-2 melanoma it was 34.4 µM. Also, the TGI was found to be 30.2 µM with HOP-62 NSCLC, 3.23 µM in the test with LOX IMVI melanoma and 14.2 µM in the test on SK-MEL-5 melanoma.

Regarding `COC(=O)CNC(=O)[C@@H](OC)[C@@H]1Cc2cc3cc(OC4CC(OC5CC(O)C(O)C(C)O5)C(O)C(C)O4)c(C)c(O)c3c(O)c2C(=O)[C@H]1OC1CC(OC2CC(OC3CC(C)(O)C(O)C(C)O3)C(O)C(C)O2)C(O)C(C)O1` (some centres undefined), the GI50 with UO-31 renal is 0.45 µM; in the test on A549 NSCLC it was 0.183 µM; in the test with HL-60(TB) leukemia it was 1.08 µM; in the test on SNB-75 CNS it was 0.127 µM; in the test on EKVX NSCLC, 0.219 µM; in the test with SK-MEL-2 melanoma, 0.147 µM. Further, the GI50 in the test on HOP-62 NSCLC is 0.0908 µM; with LOX IMVI melanoma it was 0.0592 µM; in the test with SK-MEL-5 melanoma it was 0.084 µM. Further, the TGI with UO-31 renal is 12.8 µM; with A549 NSCLC, over 50 µM; in the test on HL-60(TB) leukemia, 49.1 µM; in the test on SNB-75 CNS, 0.9 µM; in the test with EKVX NSCLC it was over 50 µM; in the test on SK-MEL-2 melanoma, 0.712 µM. In addition, the TGI with HOP-62 NSCLC was over 50 µM; in the test with LOX IMVI melanoma, over 50 µM; in the test on SK-MEL-5 melanoma it was 0.538 µM.
